{"source": "patent USRE37770E1", "about": "“Treatment of skin conditions by use of PPARα activators” (The Regents of the University of California, priority 1997, dated 2002)", "key": {"[1]": {"tested_on": "full-thickness flank skin from the fetal rats", "assay": "Transepidermal water loss (TEWL) of fetal rat skin explants in organ culture (barrier function)", "type": "cell-based, Sprague-Dawley rats", "procedure": "Timed pregnant Sprague-Dawley rats (plug date=day 0) were obtained from Simonsen (Gilroy, Calif., USA) and fetuses were delivered prematurely on day 17. Transepidermal water loss (TEWL) was measured in excised full-thickness flank skin from the fetal rats after various times in culture. The skin explants were placed dermis-side down onto collagen membrane inserts (3μ pore size) in medium M-199 (serum-free), and submerged, and the lateral edges and dermal surface were sealed with petrolatum, such that water loss occurred only through the epidermal surface. Explant samples were weighed hourly, at ambient temperature (24±3° C.) and humidity (40±5%), over 6 hours using a Cahn balance (sensitivity 0.001 mg). TEWL levels are reported as milligrams of water lost per square millimeter of epidermal surface per hour. Fatty acids and clofibrate (p-chlorophenoxyisobutyric acid) were added to the medium bound to 0.5% (weight/volume) bovine serum albumin (BSA). Isoprenoids and oxysterols were added in ethanol (≦0.1%) and juvenile hormone III was added as a dimethylsulfoxide (DMSO) solution (≦0.1%). Control explants were incubated in the presence of the appropriate vehicle (≦0.1% DMSO or ethanol, and/or ≦0.5% BSA). Skin explants from gestational day 17 rats were incubated in the presence of either various activators or vehicle, and transepidermal water loss was measured after two days. The activators and the concentrations at which they were used were as follows: […]"}, "[2]": {"tested_on": "involucrin mRNA", "assay": "Involucrin mRNA in keratinocytes by Northern Blot", "type": "cell-based, Human", "procedure": "(§1) Human keratinocyte cells were incubated in culture containing calcium at a concentration of 0.03 mM Ca^++ (a level that is too low to induce differentiation). Also included in the culture medium were clofibrate at 400 μM or ETYA at 10 μM and 20 μM, while separate cell cultures were maintained as controls with neither clofibrate nor ETYA. The production of mRNA for both involucrin and transglutaminase was measured at intervals over a 48-hour time period (0, 6, 12, 24, and 48 hours) by Northern Blot analysis. In each case, the lighter bars represent the control cells and the darker bars the cells incubated in the clofibrate-containing medium. The degree of mRNA generated is expressed as a percent of the control at zero hours.\n(§2) Human epidermis was isolated from newborn foreskins and keratinocytes were plated in serum-free keratinocyte growth medium (“KGM”; Clonetics, San Diego, Calif. USA), using conventional techniques. Cells were treated with either the test compounds in vehicle or vehicle alone (<0.1% ethanol) for 24 or 48 hours. The test compounds were obtained from Sigma Chemical Co. (St. Louis. Mo. USA) and were stored as 15 mM stock solutions at −20° C. Mevalonate was solubilized in sterile water.\n(§3) Total RNA was isolated by using TRIZOL (Sigma Chemical Co.), following the manufacturer's protocol. Ethanol-precipitate RNA pellets were suspended in sterile, diethylpyrocarbonate (DEPC)-treated water, and RNA was quantified by absorbance at 260 nm using the 260/280 nm ratio as an index of purity. RNA (15 μg per sample) was size fractionated through a 1% agarose gel containing 2.2 M formaldehyde. RNA integrity was visualized following acridine orange staining of the gel following electrophoresis. The RNA was transfered to a nylon membrane that was subsequently baked at 80° C. for 2 hours. Blots were hybridized with the appropriate ^32p-labeled probe overnight at 65° C. Washes were then performed in a solution containing 0.1% SSC and 0.1% sodium dedecyl sulfate (SDS) for 20 minutes at room temperature, followed by a 20-minute wash at 65° C. Autoradiography was performed at −70° C. Blots were probed with β-actin to confirm equal loading. Appropriate bands were quantified by densitometry.\n(§4) Northern blot analyses were performed on keratinocytes maintained in low calcium (0.03 mM) and incubated for 24 hours in the presence of vehicle alone (<0.1% ethanol) or vehicle containing 25-hydroxycholesterol (10 μM), 22(R)-hydroxycholesterol (10 μM) cholesterol (10 μM), or mevalonate (500 μM) (individually). The mRNA levels of involucrin (“INV”) and transglutaminase (“TG'ase”) are shown in the bar graph of FIG. 14a, the INV indicated by clear bars and the TG'ase by shaded bars, both with error limits shown."}, "[3]": {"tested_on": "transglutaminase mRNA", "assay": "Transglutaminase mRNA in keratinocytes by Northern Blot", "type": "cell-based, Human", "procedure": "as §1, §2, §3, §4"}, "[4]": {"tested_on": "involucrin protein", "assay": "Involucrin protein level in keratinocytes by Western Blot", "type": "cell-based, Human", "procedure": "Measurements of the level of the involucrin protein itself were performed in the culture medium by Western Blot. Various incubations were performed, in media containing clofibrate at concentrations ranging from 0 (vehicle only) to 400 μM and calcium ion at both 0.03 mM and 1.2 mM. The results are shown in FIG. 9a for tests with calcium ion at 0.03 mM, and in FIG. 9b for tests with calcium ion at 1.2 mM. In these figures, the protein contents are expressed as percents of the respective measurements taken from media incubated for the same period of time but in the absence of clofibrate.\nThe procedures of Example 8 were followed, and measurements were taken on the involucrin protein levels from cells incubated at various concentrations of farnesol and juvenile hormone III ranging from 0 (vehicle only) to 15 μM, in media containing 0.03 mM and 1.2 mM calcium ion, for 24 hours. The results are shown in FIG. 10 for farnesol and FIG. 11 for juvenile hormone III, in 0.03 mM Ca^++.\nProtein concentration was assessed by protein electrophoresis and Western blotting. Cells were lysed is 2% SDS and the lysate sonicated. Protein determinations were made by use of a Bicinchoninic add protein assay (Pierce Chemical Company, Rockford, Ill. USA). Following protein determination, equal amounts at protein (50 μg) were separated by electrophoresis an 7.5% polyacrylamide gels and electroblotted onto polyvinylidene […] membranes (0.2-μ, obtained from Bio-Rad Laboratories Hercules, Calif., USA). Involucrin protein was detected by incubation over-night at 4° C. C. with a polyclonal rabbit anti-human involucrin antibody (1:1000 dilution). The involucrin-specific bands on the autoradiograms were quantitated by densitometry by densitometry. Transglutaminase protein expression was measured in a similar mmaner, using stacking, sample and running buffers containing 4 M urea, and the gels following electrophoresis were washed in 4 M urea, 25 mM TRIS-HCl, pH 7.4, 7.5 mM NaCl, 0.1 mM dithiothreitol (DTT), and 2 mM ethylenediamine tetraacetic acid for 90 minutes prior to electoblotting, allowing the transglutaminase to be detected by antibody. Specific bands on the autoradiograms were quantified by densitometry."}, "[5]": {"tested_on": "Normal human keratinocytes", "assay": "Cornified envelope formation (35S incorporation) in keratinocytes", "type": "cell-based", "conditions": "48 hours; for increase in cornified envelope (CE) formation: 10 μM; for Cornified Envelope Formation (% of Control): control = 0.03 mM Ca++ vehicle, mean ± SEM"}, "[6]": {"tested_on": "involucrin mRNA", "assay": "Involucrin mRNA in keratinocytes by Northern Blot", "type": "cell-based, Human", "remark": "listed apart in the source"}, "[7]": {"tested_on": "transglutaminase mRNA", "assay": "Transglutaminase mRNA in keratinocytes by Northern Blot", "type": "cell-based, Human", "remark": "listed apart in the source"}, "[8]": {"conditions": "10 μM alone, 24 hours (Example 17)"}, "[9]": {"conditions": "low calcium (0.03 mM), 24 hours, 10 μM"}, "[10]": {"conditions": "10 μM in the presence of mevalonate (10 μM), 24 hours"}, "[11]": {"conditions": "24 hours, 0 to 400 μM, in either 0.03 mM or 1.2 mM Ca++"}, "[12]": {"conditions": "1.2 mM Ca++, 400 μM, all time points relative to the controls"}}}
{"smiles": "C[C@H](CCCC(C)(C)O)[C@H]1CC[C@H]2[C@@H]3CC=C4C[C@@H](O)CC[C@]4(C)[C@H]3CC[C@]12C", "note": "[25-hydroxycholesterol]", "values": [{"measurement": "effect on TEWL / barrier function", "setting": "[1]; 50 μM, two days", "result": "neither mevalonate at 200 μM, 25-hydroxy cholesterol at 50 μM), squalene at 50 μM, geranylgeraniol at 50 μM, cis-farnesol at 50 μM, nor nerolidol at 100 μM significantly affected barrier function"}, {"measurement": "INV mRNA level", "setting": "[2]; [8]", "result": "two-fold increase"}, {"measurement": "involucrin (INV) mRNA level compared to the vehicle alone", "setting": "[2]; [9]", "result": "approximate twofold increase"}, {"measurement": "TG'ase mRNA level", "setting": "[3]; [8]", "result": "two-fold increase"}, {"measurement": "transglutaminase (TG'ase) mRNA level compared to the vehicle alone", "setting": "[3]; [9]", "result": "approximate twofold increase"}, {"measurement": "increase in INV protein", "setting": "[4]; high calcium (1.2 mM), 15 μM", "result": 3.2, "unit": "fold"}, {"measurement": "INV protein level relative to the control", "setting": "[4]; low calcium (0.03 mM), 24 hours", "result": "approximately 1.7 fold"}, {"measurement": "increase in cornified envelope (CE) formation", "setting": "[5]; high calcium (1.2 mM)", "result": 1.75, "unit": "fold"}, {"measurement": "increase in cornified envelope (CE) formation", "setting": "[5]; low calcium (0.03 mM)", "result": 1.6, "unit": "fold"}, {"measurement": "INV mRNA level", "setting": "[6]; [10]", "result": "two-fold increase"}, {"measurement": "TG'ase mRNA level", "setting": "[7]; [10]", "result": "two-fold increase"}]}
{"smiles": "CCOC(=O)C(C)(C)Oc1ccc(Cl)cc1", "note": "[clofibrate, 2-(4-chlorophenoxy)-2-methylpropanoic acid ethyl ester]", "values": [{"measurement": "EC50", "setting": "[1]; Rattus norvegicus, dose response, FIGS. 4a-4c, read-out: concentration of half-maximal effect on barrier development (TEWL)", "result": "~250", "unit": "µM"}, {"measurement": "concentration of maximal effect on barrier development (TEWL)", "setting": "[1]; dose response, FIGS. 4a-4c", "result": "approximately 500 μM"}, {"measurement": "involucrin mRNA level", "setting": "[2]; 0.03 mM Ca++, 400 μM, 0-48 hours, increase beginning at six hours", "result": "significantly increased levels"}, {"measurement": "dose dependency of involucrin mRNA level", "setting": "[2]; [11]", "result": "increase with increasing dosages"}, {"measurement": "transglutaminase mRNA level", "setting": "[3]; 0.03 mM Ca++, 400 μM, 0-48 hours, increase beginning at twelve hours", "result": "significantly increased levels"}, {"measurement": "dose dependency of transglutaminase mRNA level", "setting": "[3]; [11]", "result": "increase with increasing dosages"}, {"measurement": "involucrin protein content", "setting": "[4]; 0 to 400 μM, calcium ion at both 0.03 mM and 1.2 mM", "result": "substantial increases in the protein content"}, {"measurement": "Cornified Envelope Formation (% of Control)", "setting": "[5]; Calcium 0.03 mM, Clofibrate 50 μM", "result": "121.4% ± 15.7 % of Control"}, {"measurement": "Cornified Envelope Formation (% of Control)", "setting": "[5]; Calcium 0.03 mM, Clofibrate 200 μM", "result": "321.3% ± 30.4 % of Control"}, {"measurement": "Cornified Envelope Formation (% of Control)", "setting": "[5]; Calcium 0.03 mM, Clofibrate 400 μM", "result": "386.8% ± 28.7 % of Control"}, {"measurement": "Cornified Envelope Formation (% of Control)", "setting": "[5]; Calcium 1.2 mM, Clofibrate 50 μM", "result": "458.9% ± 39.8 % of Control"}, {"measurement": "Cornified Envelope Formation (% of Control)", "setting": "[5]; Calcium 1.2 mM, Clofibrate 200 μM", "result": "529.3% ± 17.4 % of Control"}, {"measurement": "Cornified Envelope Formation (% of Control)", "setting": "[5]; Calcium 1.2 mM, Clofibrate 400 μM", "result": "581.9% ± 28.7 % of Control"}, {"measurement": "involucrin mRNA level", "setting": "[6]; [12]", "result": "increased mRNA levels"}, {"measurement": "transglutaminase mRNA level", "setting": "[7]; [12]", "result": "increased mRNA levels"}]}
